Measurements from ChEMBL document CHEMBL3885861, “Open TG-GATES”.

Species: Rattus norvegicus
Test: Open TG-GATES - Regimen: Daily Repeat
Type: toxicity, organism-based, Sprague-Dawley
Parameters: regimen Daily Repeat, gender Male, age 6 weeks
Settings: in vivo, po, route gavage; for Bas / Eos / Fbg / Hb / Ht / Lym / MCV / Mono / Neu / PT / Plat / RBC / Ret / WBC / APTT / MCH / MCHC: tissue Blood; for KIDNEY_L / KIDNEY_R / KIDNEY_TOTAL: tissue Kidney; for LIVER: tissue Liver; for ALP / ALT / AST / BUN / CRE / DBIL / GLC / IP / K / LDH / Na / PL / RALB / TBIL / TC / TG / TP / gamma-GTP / Ca: tissue Plasma
[1] = 300 mg/kg, 72 h, dose level Middle, time 3 day
[2] = 300 mg/kg, […], dose level Middle, time 7 day
[3] = 300 mg/kg, […], dose level Middle, time 14 day
[4] = 300 mg/kg, […], dose level Middle, time 28 day
[5] = 1000 mg/kg, 72 h, dose level High, time 3 day
[6] = 1000 mg/kg, […], dose level High, time 7 day
[7] = 1000 mg/kg, […], dose level High, time 14 day
[8] = 1000 mg/kg, […], dose level High, time 28 day

Structure (SMILES): O=C(O)c1cn(C2CC2)c2cc(N3CCNCC3)c(F)cc2c1=O [CIPROFLOXACIN]
- Bas [1]: 0%
- Eos [1]: 1%
- Fbg [1]: 217 mg/dL
- Hb [1]: 13 g/dL
- Ht [1]: 38.7%
- Lym [1]: 78.4%
- MCV [1]: 63.5 fL
- Mono [1]: 6%
- Neu [1]: 14.4%
- PT [1]: 12.4 s
- Plat [1]: 103.1 x10_4/uL
- RBC [1]: 609 x10_4/ul
- Ret [1]: 6.9%
- WBC [1]: 87 x10_2/uL
- KIDNEY_L [1]: 0.9 g
- KIDNEY_R [1]: 0.9 g
- KIDNEY_TOTAL [1]: 1.8 g
- LIVER [1]: 8.6 g
- ALP [1]: 998 IU/L
- ALT [1]: 37.8 IU/L
- AST [1]: 68.4 IU/L
- BUN [1]: 16.4 mg/dL
- CRE [1]: 0.5 mg/dL
- DBIL [1]: 0.014 mg/dL
- GLC [1]: 182 mg/dL
- IP [1]: 9.1 mg/dL
- K [1]: 5 meq/L
- LDH [1]: 81 IU/L
- Na [1]: 140.4 meq/L
- PL [1]: 148.8 mg/dL
- RALB [1]: 3.8 g/dL
- TBIL [1]: 0.3 mg/dL
- TC [1]: 91 mg/dL
- TG [1]: 49.4 mg/dL
- TP [1]: 5.8 g/dL
- gamma-GTP [1]: 2.2 IU/L
- TERMINAL_BW [2]: 237.8 g
- TERMINAL_BW [3]: 282.8 g
- TERMINAL_BW [4]: 378.4 g
- APTT [2]: 16 s
- Bas [2]: 0%
- Eos [2]: 0.6%
- Fbg [2]: 218.5 mg/dL
- Hb [2]: 13.2 g/dL
- Ht [2]: 39.7%
- Lym [2]: 80.4%
- MCH [2]: 21.4 pg
- MCHC [2]: 33.4%
- MCV [2]: 64 fL
- Mono [2]: 4.8%
- Neu [2]: 14%
- PT [2]: 12.4 s
- Plat [2]: 98.1 x10_4/uL
- RBC [2]: 620.2 x10_4/ul
- Ret [2]: 6.7%
- WBC [2]: 128.7 x10_2/uL
- APTT [3]: 16.4 s
- Bas [3]: 0%
- Eos [3]: 1%
- Fbg [3]: 251 mg/dL
- Hb [3]: 13.9 g/dL
- Ht [3]: 41.6%
- Lym [3]: 83.4%
- MCH [3]: 20.4 pg
- MCHC [3]: 33.4%
- MCV [3]: 61.2 fL
- Mono [3]: 5%
- Neu [3]: 10.6%
- PT [3]: 10 s
- Plat [3]: 117.4 x10_4/uL
- RBC [3]: 680.8 x10_4/ul
- Ret [3]: 6.4%
- WBC [3]: 162 x10_2/uL
- APTT [4]: 16.7 s
- Bas [4]: 0%
- Eos [4]: 0.8%
- Fbg [4]: 245.2 mg/dL
- Ht [4]: 44%
- Lym [4]: 83.2%
- MCH [4]: 19.3 pg
- MCHC [4]: 33.2%
- MCV [4]: 58.1 fL
- Mono [4]: 5%
- Neu [4]: 10.8%
- Plat [4]: 100 x10_4/uL
- RBC [4]: 756.8 x10_4/ul
- Ret [4]: 3.2%
- WBC [4]: 123.6 x10_2/uL
- KIDNEY_L [2]: 1 g
- KIDNEY_R [2]: 1 g
- KIDNEY_TOTAL [2]: 2.1 g
- KIDNEY_L [3]: 1.1 g
- KIDNEY_R [3]: 1.1 g
- KIDNEY_TOTAL [3]: 2.3 g
- KIDNEY_L [4]: 1.3 g
- KIDNEY_R [4]: 1.3 g
- KIDNEY_TOTAL [4]: 2.6 g
- LIVER [2]: 10.8 g
- LIVER [3]: 12.3 g
- LIVER [4]: 16 g
- ALP [2]: 917.6 IU/L
- AST [2]: 66.4 IU/L
- BUN [2]: 20 mg/dL
- CRE [2]: 0.5 mg/dL
- Ca [2]: 11.4 mg/dL
- DBIL [2]: 0.004 mg/dL
- GLC [2]: 173.8 mg/dL
- IP [2]: 9 mg/dL
- K [2]: 4.9 meq/L
- LDH [2]: 65.2 IU/L
- Na [2]: 141.6 meq/L
- PL [2]: 160.8 mg/dL
- RALB [2]: 4 g/dL
- TBIL [2]: 0.3 mg/dL
- TC [2]: 90 mg/dL
- TG [2]: 86.6 mg/dL
- TP [2]: 5.8 g/dL
- gamma-GTP [2]: 1.2 IU/L
- ALP [3]: 973.2 IU/L
- ALT [3]: 31.6 IU/L
- AST [3]: 59.2 IU/L
- BUN [3]: 20.4 mg/dL
- CRE [3]: 0.6 mg/dL
- Ca [3]: 11 mg/dL
- DBIL [3]: 0.008 mg/dL
- GLC [3]: 184.8 mg/dL
- IP [3]: 7.8 mg/dL
- K [3]: 4.8 meq/L
- LDH [3]: 83.4 IU/L
- Na [3]: 139 meq/L
- PL [3]: 160 mg/dL
- RALB [3]: 4 g/dL
- TBIL [3]: 0.3 mg/dL
- TG [3]: 105.8 mg/dL
- TP [3]: 6 g/dL
- gamma-GTP [3]: 2.8 IU/L
- ALP [4]: 655 IU/L
- ALT [4]: 33.8 IU/L
- AST [4]: 59.4 IU/L
- BUN [4]: 19.8 mg/dL
- CRE [4]: 0.4 mg/dL
- DBIL [4]: 0.004 mg/dL
- GLC [4]: 180.8 mg/dL
- IP [4]: 7.7 mg/dL
- K [4]: 4.4 meq/L
- LDH [4]: 102.2 IU/L
- Na [4]: 140.6 meq/L
- PL [4]: 172 mg/dL
- RALB [4]: 4.1 g/dL
- TBIL [4]: 0.3 mg/dL
- TC [4]: 82.6 mg/dL
- TG [4]: 184.6 mg/dL
- TP [4]: 6.6 g/dL
- gamma-GTP [4]: 1 IU/L
- TERMINAL_BW [5]: 203.7 g
- APTT [5]: 18.7 s
- Bas [5]: 0%
- Eos [5]: 1%
- Fbg [5]: 222 mg/dL
- Hb [5]: 12.8 g/dL
- Ht [5]: 38.4%
- Lym [5]: 83.2%
- MCH [5]: 21.2 pg
- MCHC [5]: 33.4%
- Mono [5]: 6%
- Neu [5]: 10%
- PT [5]: 12.3 s
- Plat [5]: 101.1 x10_4/uL
- RBC [5]: 603.4 x10_4/ul
- Ret [5]: 6%
- WBC [5]: 121.3 x10_2/uL
- KIDNEY_L [5]: 0.9 g
- KIDNEY_R [5]: 1 g
- KIDNEY_TOTAL [5]: 1.9 g
- LIVER [5]: 9.6 g
- ALP [5]: 962.6 IU/L
- ALT [5]: 39 IU/L
- AST [5]: 65.2 IU/L
- BUN [5]: 16.8 mg/dL
- CRE [5]: 0.5 mg/dL
- Ca [5]: 11.2 mg/dL
- DBIL [5]: 0.004 mg/dL
- GLC [5]: 183.2 mg/dL
- IP [5]: 9.4 mg/dL
- K [5]: 4.9 meq/L
- LDH [5]: 143.2 IU/L
- Na [5]: 140.6 meq/L
- PL [5]: 139.2 mg/dL
- RALB [5]: 3.8 g/dL
- TBIL [5]: 0.2 mg/dL
- TC [5]: 86 mg/dL
- TP [5]: 5.7 g/dL
- gamma-GTP [5]: 1.4 IU/L
- TERMINAL_BW [6]: 228.1 g
- TERMINAL_BW [7]: 267.6 g
- TERMINAL_BW [8]: 381.8 g
- APTT [6]: 16 s
- Bas [6]: 0%
- Eos [6]: 0.8%
- Fbg [6]: 231.8 mg/dL
- Hb [6]: 13.5 g/dL
- Ht [6]: 40.4%
- Lym [6]: 81.2%
- MCH [6]: 21.1 pg
- MCHC [6]: 33.5%
- MCV [6]: 63 fL
- Mono [6]: 5.4%
- Neu [6]: 12.8%
- Plat [6]: 106.3 x10_4/uL
- RBC [6]: 640.8 x10_4/ul
- Ret [6]: 6.4%
- WBC [6]: 154.8 x10_2/uL
- APTT [7]: 16.2 s
- Bas [7]: 0%
- Eos [7]: 0.8%
- Fbg [7]: 255.2 mg/dL
- Hb [7]: 14.3 g/dL
- Ht [7]: 43%
- Lym [7]: 82.8%
- MCH [7]: 20.4 pg
- MCHC [7]: 33.2%
- MCV [7]: 61.6 fL
- Mono [7]: 4.4%
- Neu [7]: 12.4%
- PT [7]: 10.2 s
- Plat [7]: 97.3 x10_4/uL
- RBC [7]: 699.2 x10_4/ul
- Ret [7]: 5.7%
- WBC [7]: 139.4 x10_2/uL
- Bas [8]: 0%
- Eos [8]: 1%
- Fbg [8]: 248 mg/dL
- Hb [8]: 14.7 g/dL
- Lym [8]: 85%
- MCH [8]: 19.5 pg
- MCHC [8]: 33.5%
- MCV [8]: 58.2 fL
- Mono [8]: 3.4%
- Neu [8]: 10.8%
- Plat [8]: 110.7 x10_4/uL
- RBC [8]: 757.8 x10_4/ul
- Ret [8]: 3.5%
- WBC [8]: 156.8 x10_2/uL
- KIDNEY_L [6]: 1 g
- KIDNEY_R [6]: 1 g
- KIDNEY_TOTAL [6]: 2 g
- KIDNEY_L [7]: 1.1 g
- KIDNEY_R [7]: 1.1 g
- KIDNEY_TOTAL [7]: 2.2 g
- KIDNEY_L [8]: 1.4 g
- KIDNEY_R [8]: 1.4 g
- KIDNEY_TOTAL [8]: 2.8 g
- LIVER [6]: 10.5 g
- LIVER [7]: 11 g
- LIVER [8]: 15 g
- ALP [6]: 850.4 IU/L
- AST [6]: 64 IU/L
- BUN [6]: 21.2 mg/dL
- CRE [6]: 0.5 mg/dL
- Ca [6]: 11.5 mg/dL
- DBIL [6]: 0 mg/dL
- GLC [6]: 182.4 mg/dL
- IP [6]: 9.6 mg/dL
- K [6]: 5.1 meq/L
- LDH [6]: 96.8 IU/L
- Na [6]: 141 meq/L
- PL [6]: 158.8 mg/dL
- RALB [6]: 3.8 g/dL
- TBIL [6]: 0.2 mg/dL
- TC [6]: 86 mg/dL
- TG [6]: 90.2 mg/dL
- TP [6]: 5.8 g/dL
- gamma-GTP [6]: 1.6 IU/L
- ALP [7]: 871.8 IU/L
- AST [7]: 61.4 IU/L
- BUN [7]: 22.8 mg/dL
- CRE [7]: 0.6 mg/dL
- DBIL [7]: 0.03 mg/dL
- GLC [7]: 182.6 mg/dL
- IP [7]: 7.8 mg/dL
- K [7]: 4.8 meq/L
- LDH [7]: 171.8 IU/L
- Na [7]: 139.2 meq/L
- PL [7]: 169 mg/dL
- RALB [7]: 4 g/dL
- TBIL [7]: 0.2 mg/dL
- TC [7]: 92 mg/dL
- TP [7]: 6.1 g/dL
- gamma-GTP [7]: 1.8 IU/L
- ALP [8]: 690 IU/L
- ALT [8]: 32.4 IU/L
- AST [8]: 51.8 IU/L
- BUN [8]: 19.4 mg/dL
- CRE [8]: 0.4 mg/dL
- Ca [8]: 11.2 mg/dL
- DBIL [8]: 0.022 mg/dL
- GLC [8]: 180.6 mg/dL
- IP [8]: 7.5 mg/dL
- K [8]: 4.4 meq/L
- LDH [8]: 160.6 IU/L
- Na [8]: 140.2 meq/L
- PL [8]: 173 mg/dL
- RALB [8]: 4.1 g/dL
- TBIL [8]: 0.2 mg/dL
- TC [8]: 96 mg/dL
- TG [8]: 102 mg/dL
- TP [8]: 6.6 g/dL
- gamma-GTP [8]: 2.4 IU/L
